# Values quoted from earlier work as cited in US11464768B2, “Pimavanserin alone or in combination for use in the treatment of Alzheimer's disease psychosis” (ACADIA Pharmaceuticals Inc., priority 2016, dated 2022).
# Conditions: tartrate salt; cited from earlier work
substance,measurement,value
"urea, N-[(4-fluorophenyl)methyl]-N-(1-methyl-4-piperidinyl)-N′-[[4-(2-methylpropoxy)phenyl]methyl]-,(2R,3R)-2,3-dihydroxybutanedioate (2:1) [Pimavanserin tartrate]",solubility in water,freely soluble in water
